Structures can show the parent of a compound that is named as a salt.
Assays:
mice = assay: Maximal electroshock (MES) model in mice, i.p.;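 for all read-outs here: Electroshock-induced convulsion model serving to demonstrate antiepileptic efficacy against generalized and partial seizures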; type: in vivo; settings: for ED50: Mus musculus, ip, Table 15
rats [1] = assay: Maximal electroshock (MES) model in rats, p.o.;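 note: rat MES model gauging antiepileptic efficacy versus generalized and partial seizures after oral dosing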; type: in vivo; settings: rats, p.o.; Table 15
[2] = Neurotoxicity in mice (rotorod ataxia test), i.p.; settings: mouse, in vivo, ip, MICE TD50, mice
Method: (§1) Neurotoxicity of the claimed agents was also assessed in mice (i.p. administration) by the rotorod ataxia test and/or in rats (p.o. administration) by positional sense test and gait stance test. […] The term quantitating the neurotoxicity is the medial neurological toxic dose (TD50), was determined in the above tests.

in vivo = settings: rat, in vivo, po
Method: as §1

male ICR albino mice = assay: Hypobaric hypoxia survival time in mice; type: in vivo
Method: Dessicator B was disconnected and allowed to equilibrate with room air whilst dessicator A was evacuated to a pressure of 100mmHg. […] The survival time from the moment of induction of hypoxia to the time of cessation of respiration was recorded for each mouse for a maximum of 15 minutes after which time room air was reintroduced to dessicator B. Survivors were monitored for signs of lethargy or vitality.
Effect of drug treatment was assessed as the percent of the survival time of the drug treated group with respect to the saline injected or vehicle injected control group. Control groups were run twice, before and after each experimental group and consisted of 12-16 mice in groups of 4 mice. Each experimental group always consisted of 4 mice to ensure a constant residual volume of oxygen in all tests. The effect of each dose of test drug was determined in duplicate i.e. two groups of 4 mice.
All drugs were administered intra-peritoneally at the dose indicated one hour prior to exposure to hypoxia.

rats [3] = assay: Neurotoxicity in rats (positional sense test and gait stance test), p.o.; settings: rats, p.o.; Table 16
Method: as §1

Male mongolian gerbils = assay: Global brain ischemia in gerbils (CA1 pyramidal neurons); type: in vivo; settings: 3 injections, fraction of hippocampi protected from ischemia, 14 days post-ischemia
Method: Each artery was clamped for 5 minutes with aneurysm clips to produce global brain ischemia. The anesthesia was discontinued upon clamping. After 5 minutes the clamps were removed and the wound closed with skin clips.
For treatment, the test compound or vehicle were injected intra-peritoneally (ip) in a volume of 50 microliters of solvent per 10g body weight. The first injection was given two minutes after clamp removal, and thereafter daily for the next 2 post-operative days (total of 3 injections).
Seven groups each of 4-8 animals were compared: • I. Control; (sham- or unoperated and saline treated), • II. Vehicle treated, unoperated (when solvent is other than saline), • III. Ischemia - untreated or saline treated), • IV. Ischemia - vehicle treated (when solvent is other than saline), • V. Ischemia - Test compound treated, one sub-group per concentration tested, • VI. Ischemia and pentobarbital (40 mg/kg) as positive control).
Analysis of neuronal damage was performed 14 days post-ischemia by counting pyramidal neurons throughout the CA1 layer of the anterior hippocampus in […] thick (paraffin) coronal brain sections stained with hematoxylin and erosin.
Percent Protection values represent the fraction of hippocampi protected from ischemia in a group of animals treated with the stated dose of compound.

[4] = tested on: mechanically dissociated neonatal rat cerebellum; assay: Reversal of NMDA induced cell death in cultures of neonatal rat cerebellum; type: cell-based; settings: for SURVIVING CELL IN CULTURE: relative to control (100%)
Method: The cerebellum was aseptically dissociated from 6 or 7-day old rat pups and placed in a 15ml sterile plastic conical tube containing 3ml of Dulbecco's modified Eagle's medium (DMEM) with a high glucose concentration ([…]) and 2mM (v/v) L-glutamine and an antibiotic antimitotic mixture. The cerebella were then dissociated after 20-25 passages through a sterile 13 gauge, 10cm long stainless steel needle attached to a 5ml syringe with an inserted 45 micrometer pore nylon sieve. The dissociated cells were centrifuged at 200g for 5 minutes. The supernatant was discarded and the cells resuspended in medium enriched with 15% (v/v) heat inactivated fetal calf serum. Cell viability was determined by the tryptan blue exclusion test.
Cells were plated at a density of 200/mm^2 on poly-L-lysine coated surfaces. Poly-L-lysine coated glass coverslips were prepared at least one hour in advance of plating by immersing sterile coverslips in sterile distilled water solution containing 15 microgram/ml poly-L-lysine, and washing in sterile water just prior to use. The plated cells were covered with enriched medium and incubated at 37°C in an atmosphere of 5% CO2 in air and 97% humidity. After three days in culture, the media was replaced with media containing the desired test compound. Each test compound was tested in duplicate. Toxic-dose response was determined for each compound.
Four groups were run in each set of experiments; • I. Control, consisting of enriched media alone, • II. N-methyl-D-aspartate (NMDA, 1mM for 3 hours) as the cytotoxic challenge, • III. Test compound plus NMDA, and • IV. Positive control, spermine(0.01 micromoles) plus NMDA.
Nerve cell survival was evaluated by phase contrast microscopy and tryptan blue staining after 24 hours.
Surviving cells in culture are measured relative to control (100%), as described above. Percent protection is the Cell Survival for the test compound minus the NMDA effect. Thus, maximal protection is 100% minus 30% NMDA effect i.e. […]. The Effective Protection was calculated as the percent of the Percent Protection (X) divided by the maximal protection value (e.g. X x 100/70).

[5] = 50 mg/kg ip one hour prior to hypoxia
[6] = 100 mg/kg ip one hour prior to hypoxia
[7] = positive control, 0.01 micromoles plus NMDA

SMILES: c1ccc2c(c1)CCC2NC1CCc2ccccc21 (racemic) [Example 43, (rac)-M,N-Di-(1-indanyl)amine.HCl]
- ED50 (mice): < 100 mg/kg
- RATS MES 50 (rats [1]): <50 mg/kg
- TD50 ([2]; Table 15): < 100 mg/kg
- TD50 (in vivo): > 50 mg/kg

SMILES: CN1C(=O)CN=C(c2ccccc2)c2cc(Cl)ccc21 [Diazepam, diazepam, reference compound]
- PROTECTION % OF RESPECTIVE CONTROL (male ICR albino mice; 5 mg/kg ip 0.5 hour prior to hypoxia): 249±166 % OF RESPECTIVE CONTROL
- PROTECTION % OF RESPECTIVE CONTROL (male ICR albino mice; 10 mg/kg ip 0.5 hour prior to hypoxia): 430±59 % OF RESPECTIVE CONTROL

SMILES: CN[C@H]1CCc2ccccc21 [Example 14, (S)-N-Methyl-1-aminoindan.HCl]
- TD50 ([2]; Table 15): 100 mg/kg
- TD50 ([2]; Table 16): 100 mg/kg
- RATS TD50 (rats [3]): >142 mg/kg
- TD50 (in vivo): > 142 mg/kg

SMILES: NC1Cc2ccccc21 (centres unmarked) [Example 27, 1-Aminobenzocyclobutene.HCl]
- ED50 (mice): < 100 mg/kg
- RATS MES 50 (rats [1]): <50 mg/kg
- TD50 ([2]; Table 15): > 100 mg/kg
- TD50 (in vivo): > 50 mg/kg

SMILES: COc1ccc2c(c1OC)CC[C@@H]2N.Cl [Example 30, (S)-4,5-Dimethoxy-1-aminoindan, HCl]
- PROTECTION % OF RESPECTIVE CONTROL (male ICR albino mice; [5]): 265±284 % OF RESPECTIVE CONTROL
- PROTECTION % OF RESPECTIVE CONTROL (male ICR albino mice; [6]): 379±202 % OF RESPECTIVE CONTROL

SMILES: Cl.N[C@@H]1CCc2ccc(O)cc21 [Example 35, (R)-6-Hydroxy-1-aminoindan.HCl]
- PERCENT PROTECTION (Male mongolian gerbils; 0.1 mg/kg ip): 25.0%
- PERCENT PROTECTION (Male mongolian gerbils; 1.0 mg/kg ip): 37.5%
- PERCENT PROTECTION (Male mongolian gerbils; 10.0 mg/kg ip): 37.5%
- SURVIVING CELL IN CULTURE ([4]; 0.005 µM + NMDA 1mM for 3 hours): 60%
- PERCENT PROTECTION ([4]; 0.005 µM + NMDA, Cell Survival minus the NMDA effect): 30%
- EFFECTIVE PROTECTION ([4]; 0.005 µM + NMDA, X x 100/70): 43%
- SURVIVING CELL IN CULTURE ([4]; 0.010 µM + NMDA 1mM for 3 hours): 34%
- PERCENT PROTECTION ([4]; 0.010 µM + NMDA, Cell Survival minus the NMDA effect): 4%
- EFFECTIVE PROTECTION ([4]; 0.010 µM + NMDA, X x 100/70): 6%
- SURVIVING CELL IN CULTURE ([4]; 0.100 µM + NMDA 1mM for 3 hours): 30%
- PERCENT PROTECTION ([4]; 0.100 µM + NMDA, Cell Survival minus the NMDA effect): 0%
- EFFECTIVE PROTECTION ([4]; 0.100 µM + NMDA, X x 100/70): 0%

SMILES: C[C@@H]1Cc2ccccc2[C@H]1N [Example 39, (rac)-trans-2-Methyl-1-aminoindan.HCl]
- PROTECTION % OF RESPECTIVE CONTROL (male ICR albino mice; [5]): 600±213 % OF RESPECTIVE CONTROL
- PROTECTION % OF RESPECTIVE CONTROL (male ICR albino mice; [6]): 798±249 % OF RESPECTIVE CONTROL
- ED50 (mice): < 100 mg/kg
- RATS MES 50 (rats [1]): <50 mg/kg
- TD50 ([2]; Table 15): < 100 mg/kg
- TD50 (in vivo): > 50 mg/kg

SMILES: C[C@H]1Cc2ccccc2[C@H]1N [Example 40, (rac)-cis-2-Methyl-1-aminoindan.HCl]
- PROTECTION % OF RESPECTIVE CONTROL (male ICR albino mice; [5]): 374±190 % OF RESPECTIVE CONTROL
- PROTECTION % OF RESPECTIVE CONTROL (male ICR albino mice; [6]): 569±173 % OF RESPECTIVE CONTROL
- ED50 (mice): < 100 mg/kg
- RATS MES 50 (rats [1]): <50 mg/kg
- TD50 ([2]; Table 15): < 100 mg/kg
- TD50 (in vivo): > 50 mg/kg

SMILES: C#CCN[C@@H]1CCc2ccccc21.CS(=O)(=O)O [F, (R)-N-propargyl-1-aminoindan mesylate salt]
- ED50 (mice): < 300 mg/kg

SMILES: N[C@H]1CCc2ccc(F)cc21 [K, (S)-6-fluoro-1-aminoindan]
- ED50 (mice): 115 mg/kg
- activity in the MES model in mice (mice; statement in words): showed activity
- TD50 ([2]; Table 15): < 250 mg/kg
- TD50 ([2]; Table 16): < 250 mg/kg

SMILES: CCCC(C)C1(CC)C(=O)NC(=O)NC1=O (centres unmarked) [Pentobarbitone, sodium pentobarbital, reference compound]
- PROTECTION % OF RESPECTIVE CONTROL (male ICR albino mice; 20 mg/kg ip 0.5 hour prior to hypoxia): 325±166 % OF RESPECTIVE CONTROL
- PROTECTION % OF RESPECTIVE CONTROL (male ICR albino mice; 40 mg/kg ip 0.5 hour prior to hypoxia): 446±10.5 % OF RESPECTIVE CONTROL

SMILES: NCCCNCCCCNCCCN [Spermine, spermine, reference compound]
- EFFECTIVE PROTECTION [4, 7]: 74%
- PERCENT PROTECTION [4, 7]: 52%
- SURVIVING CELL IN CULTURE [4, 7]: 82%
